Results: US20080171095A1, “Carnosine-related compounds for preventing and treating impaired neurovascular blood flow” (Michigan State University, priority 2005, published 2008)

Test system: Male C57BL/6J mice, permanent occlusion of the middle cerebral artery (focal ischemia)
Assay: Focal ischemia in mice: permanent occlusion of the middle cerebral artery, infarct volume by 2,3,5-triphenyl-tetrazolium chloride staining
Type: in vivo
Details: assessed 24 hours after occlusion; for Reduction of infarct volume versus saline-injected control mice: 30 minutes before artery occlusion (FIG. 1)
Experimental: Male C57BL/6J mice were subjected to a permanent occlusion of the middle cerebral artery. For prophylactic studies, carnosine (100 mg/kg or 500 mg/kg, I.P.) was administered thirty (30) minutes (FIG. 1) or sixty (60) minutes (FIG. 2) before artery occlusion. For treatment studies, carnosine (1000 mg/kg, I.P.) was administered sixty (60) minutes after artery occlusion (FIG. 2).
Damage to the neural tissue (i.e., infarct volume) was assessed twenty-four (24) hours after occlusion by 2,3,5-triphenyl-tetrazolium chloride staining. Infarct volumes were reduced by 49% and 65% in mice prophylactically given 100 mg/kg and 500 mg/kg carnosine, respectively, versus saline-injected control mice. (FIG. 1) This protective dose dependence was reproduced in a second experiment that compared a post-occlusion carnosine administration. In this experiment, infarct volumes were reduced by 40% and 52%, respectively in mice prophylactically given 100 mg/kg and 500 mg/kg carnosine. A 40% reduction in infarct volume was also observed when mice were administered 1000 mg/kg carnosine after the occlusion.

NCCC(=O)N[C@@H](Cc1c[nH]cn1)C(=O)O [carnosine, β-alanyl-L-histidine] was tested, and the “Reduction of infarct volume versus saline-injected control mice” value (100 mg/kg I.P., prophylactic) was 49%, the “Reduction of infarct volume versus saline-injected control mice” value (500 mg/kg I.P., prophylactic) was 65% and the “Reduction of infarct volume” value (second experiment (FIG. 2): 100 mg/kg I.P., prophylactic, 60 minutes before artery occlusion) was 40%. The “Reduction of infarct volume” value (second experiment (FIG. 2): 500 mg/kg I.P., prophylactic, 60 minutes before artery occlusion) was 52% and the “Reduction of infarct volume” value (second experiment (FIG. 2): 1000 mg/kg I.P., treatment, 60 minutes after artery occlusion) was 40%.
